Assay results reported in US6756229B1, “Human cell line showing stable expression of cytochromes P450” (Takeda Chemical Industries, Ltd., priority 1999, dated 2004).

Assays:
[1] = target: T1, CYP2B6 (Homo sapiens, UniProt P20813); test: Kinetic analysis, 7-ethoxycoumarin O-deethylase activity in Hepc/2B6.68; format: cell-based
T1 construct: expressed in transfected cells
T1 sequence (P20813 1-491): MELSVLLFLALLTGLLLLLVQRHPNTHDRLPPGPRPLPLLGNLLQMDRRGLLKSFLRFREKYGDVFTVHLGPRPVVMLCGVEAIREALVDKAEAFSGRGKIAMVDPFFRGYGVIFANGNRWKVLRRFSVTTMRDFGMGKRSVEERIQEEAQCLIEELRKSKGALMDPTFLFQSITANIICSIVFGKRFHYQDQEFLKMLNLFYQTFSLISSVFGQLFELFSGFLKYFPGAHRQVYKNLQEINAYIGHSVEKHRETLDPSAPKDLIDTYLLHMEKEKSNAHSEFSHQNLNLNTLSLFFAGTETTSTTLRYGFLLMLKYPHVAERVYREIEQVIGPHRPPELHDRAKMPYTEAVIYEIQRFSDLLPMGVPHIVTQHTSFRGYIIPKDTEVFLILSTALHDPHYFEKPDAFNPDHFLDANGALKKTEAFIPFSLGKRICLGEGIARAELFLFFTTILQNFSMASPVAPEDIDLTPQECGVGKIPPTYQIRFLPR
Protocol: The reaction solution was diluted to 10-fold with 0.1M Tris-HCl (pH 7.4) and fluorescent intensity was measured at an excited wavelength of 390 nm and a fluorescence wavelength of 440 nm, using a spectrofluorometer (Hitatchi Spectrofluorometer F-2000) to quantify 7-hydroxycoumarin formed. The product purchased from Extrasynthese was used as the standard substance for 7-hydroxycoumarin.

[2] = tested on: CYP2E1-expressing cells (Hepc/2E1.3-8); test: LDH leakage test, acetaminophen in CYP2E1-expressing cells; format: cell-based, human
Protocol: (§1) Two plates each with the same design as in the MTT assay were prepared (for determination of LDH activity in the culture supernatant and for determination of LDH activity in the culture supernatant+LDH activity in the cells). After incubating for 3 days in a CO2 incubator, 10 μl of the supernatant was taken from each well of one plate (for determination of LDH activity in the supernatant), transferred to another 96-well plate, and 40 μl of distilled water was further added. On the other hand, 10 μl of 10% Triton X100 (Wako Junyaku K. K. ) was added to each well of another plate (for determination of LDH activity in the culture supernatant+LDH activity in the cells), followed by shaking and incubation at 37° C. for 45 minutes. After centrifuging at 1500 rpm for 5 minutes, 10 μl of the supernatant was taken from each well, transferred to another 96-well plate, and 40 μl of distilled water was further added. The LDH activity of each well in these plates was measured using Cytotox 96 Non-Radioactive Cytotoxicity Assay Kit (Promega). Multiscanning MS-UV was used for the measurement of absorbance. A ratio of the LDH activity in the supernatant to (the LDH activity in the supernatant+ the LDH activity in the cells) was made an LDH leakage rate.

[3] = tested on: CYP2E1-expressing cells (Hepc/2E1.3-8); test: MTT assay, cytotoxicity of acetaminophen in CYP2E1-expressing cells; format: cell-based, human; details: 4 days incubation (FIG. 1)
Protocol: (§2) HepG2 or CYP2E1-expressing cells (Hepc/2E1.3-8) (4×10^5 cells/ml) were incubated with acetaminophen (Wako Junyaku K. K. ) diluted to a given concentration in DMEM medium supplemented with 5% FCS in a CO2 incubator. In the test to terminate glutathione conjugation, L-Buthionine [S,R]-Sulfoximine (BSO, Sigma) was added to the medium in a final concentration of 100 μM. After incubation for 4 days, 20 μl of a solution of 3-(4,5-dimethyl-2-thiazolyl)-2,5-diphenyl-2H-tetrazolium bromide (MTT, Sigma) adjusted to 1 mg/ml with PBS (Flow) was added to each well followed by incubation at 37° C. for 3 hours. Next, 100 μl of 0.01N HCl solution containing 10% SDS was added to each well. After incubation at 37° C. overnight, absorbance was measured at 590 nm.

[4] = tested on: HepG2; test: MTT assay, cytotoxicity of acetaminophen in HepG2; format: cell-based, human; details: HepG2, without BSO, 4 days incubation (FIG. 1)
Protocol: as §2

[5] = tested on: HepG2; test: LDH leakage test, acetaminophen in HepG2; format: cell-based, human
Protocol: as §1

[6] = tested on: CYP1A1-expressing cells (Hepc/1A1.4); test: MTT assay, cytotoxicity of benzanthracene in CYP1A1-expressing cells; format: cell-based, human; details: Hepc/1A1.4 compared with HepG2, 4 days incubation, concentration-dependent (FIG. 3)
Protocol: CYP1A1-expressing cells (Hepc/1A1.4) (4×10^5 cells/ml) were incubated with benzanthracene (Sigma) diluted to a given concentration in DMEM medium supplemented with 5% FCS in a CO2 incubator. After incubation for 4 days, 20 μl of a MTT (Sigma) solution adjusted to 1 mg/ml with PBS (Flow) was added to each well followed by incubation at 37° C. for 3 hours. Next, 100 μl of 0.01N HCl solution containing 10% SDS was added to each well. After incubation at 37° C. overnight, absorbance was measured at 590 nm.

[7] = target: CYP3A4 (Homo sapiens, UniProt P08684); test: Kinetic analysis, testosterone 6β-hydroxylase activity in Hepc/3A4.5
CYP3A4, sequence (P08684 whole entry): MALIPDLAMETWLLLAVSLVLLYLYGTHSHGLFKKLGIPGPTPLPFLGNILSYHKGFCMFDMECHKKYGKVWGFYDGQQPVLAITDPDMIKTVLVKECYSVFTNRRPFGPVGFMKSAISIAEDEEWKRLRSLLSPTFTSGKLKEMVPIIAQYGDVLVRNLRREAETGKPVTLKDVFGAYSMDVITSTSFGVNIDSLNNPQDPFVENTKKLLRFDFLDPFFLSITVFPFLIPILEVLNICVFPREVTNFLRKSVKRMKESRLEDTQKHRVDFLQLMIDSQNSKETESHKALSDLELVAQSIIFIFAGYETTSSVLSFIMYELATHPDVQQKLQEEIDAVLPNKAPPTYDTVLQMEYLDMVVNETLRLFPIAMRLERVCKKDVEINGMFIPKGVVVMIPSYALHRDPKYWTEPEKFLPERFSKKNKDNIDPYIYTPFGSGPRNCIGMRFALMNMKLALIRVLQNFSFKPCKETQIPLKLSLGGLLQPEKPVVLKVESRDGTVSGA
Protocol: Subsequently, testosterone previously diluted to 100 μM was added in 500 μl/well.
A program was made up to set for a linear gradient of 0-100% solution B in 0-20 minutes, 100% solution B in 20-30 minutes and since then 100% solution.

[8] = target: CYP2E1 (Homo sapiens, UniProt P05181); details: Hepc/2E1.3-8 cells incubated 3 days with the substance; 500 μM p-nitrophenol (FIG. 7)
CYP2E1, sequence (P05181 whole entry): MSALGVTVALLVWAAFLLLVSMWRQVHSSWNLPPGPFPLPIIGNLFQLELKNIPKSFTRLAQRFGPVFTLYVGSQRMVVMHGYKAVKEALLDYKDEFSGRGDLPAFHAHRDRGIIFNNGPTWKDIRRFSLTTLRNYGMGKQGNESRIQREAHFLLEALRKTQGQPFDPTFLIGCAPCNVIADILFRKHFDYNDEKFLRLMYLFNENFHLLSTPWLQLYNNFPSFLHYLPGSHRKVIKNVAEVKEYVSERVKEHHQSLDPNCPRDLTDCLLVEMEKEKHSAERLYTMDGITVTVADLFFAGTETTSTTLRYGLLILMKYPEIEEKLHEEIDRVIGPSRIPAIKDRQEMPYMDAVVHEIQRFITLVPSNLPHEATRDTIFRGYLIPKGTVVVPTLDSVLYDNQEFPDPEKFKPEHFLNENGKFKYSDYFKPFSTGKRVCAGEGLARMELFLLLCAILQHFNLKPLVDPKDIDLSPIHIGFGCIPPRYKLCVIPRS
Protocol: The medium was suctioned and the cells attached to the plate were washed with Phenol Red-free DMEM medium. Subsequently, p-nitrophenol previously diluted to 500 μM was added in 500 μl/well. After reacting at 37° C., the reaction solution was recovered from each well. To 100 μl of the reaction solution 50 μl of NaOH (Wako Junyaku K. K. ) was added, and insoluble matters were removed by centrifugation. By measuring absorbance at 540 nm-620 nm with multi-scanning MS-UV (Labo Systems), 4-nitrocatechol formed was quantified.

[9] = target: T2, CYP2A6 (Homo sapiens, UniProt P11509); test: Kinetic analysis, coumarin 7-hydroxylase activity in Hepc/2A6L.9; format: cell-based
T2 construct: expressed in transfected cells
T2 sequence (P11509 1-494): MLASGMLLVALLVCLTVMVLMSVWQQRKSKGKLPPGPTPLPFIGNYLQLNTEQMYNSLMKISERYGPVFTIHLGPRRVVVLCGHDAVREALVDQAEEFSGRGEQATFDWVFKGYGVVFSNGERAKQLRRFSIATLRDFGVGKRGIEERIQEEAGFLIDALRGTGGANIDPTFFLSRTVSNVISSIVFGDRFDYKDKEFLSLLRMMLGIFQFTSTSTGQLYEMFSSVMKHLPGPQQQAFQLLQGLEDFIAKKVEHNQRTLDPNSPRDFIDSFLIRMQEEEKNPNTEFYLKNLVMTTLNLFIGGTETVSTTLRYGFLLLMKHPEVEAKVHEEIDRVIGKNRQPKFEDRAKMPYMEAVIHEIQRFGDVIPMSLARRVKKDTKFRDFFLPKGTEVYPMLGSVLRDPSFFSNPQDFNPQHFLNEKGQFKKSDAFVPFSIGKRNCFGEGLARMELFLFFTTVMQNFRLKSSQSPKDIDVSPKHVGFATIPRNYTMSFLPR
Excerpt: The product purchased from Extrasynthese was used as the standard substance for 7-hydroxycoumarin.

[10] = tested on: CYP2B6-expressing cells (Hepc/2B6.68); details: Hepc/2B6.68, 4 days incubation; plateau above 2 mM
Protocol: Two plates each with the same design as in the MTT assay were prepared (for determination of LDH activity in the culture supernatant and for determination of LDH activity in the culture supernatant+LDH activity in the cells). After incubating for 4 days in a CO2 incubator, 10 μl of the supernatant was taken from each well of one plate (for determination of LDH activity in the supernatant), transferred to another 96-well plate, and 40 μl of distilled water was further added. On the other hand, 10 μl of 10% Triton X100 was added to each well of another plate (for determination of LDH activity in the culture supernatant+LDH activity in the cells), followed by shaking and incubation at 37° C. for 45 minutes. After centrifuging at 1500 rpm for 5 minutes, 10 μl of the supernatant was taken from each well, transferred to another 96-well plate, and 40 μl of distilled water was further added. The LDH activity of each well in these plates was measured using Cytotox 96 Non-Radioactive Cytotoxicity Assay Kit (Promega). Multiscanning MS-UV was used for the measurement of absorbance. A ratio of the LDH activity in the supernatant to (the LDH activity in the supernatant + the LDH activity in the cells) was made an LDH leakage rate.

[11] = tested on: CYP2B6-expressing cells (Hepc/2B6.68); details: Hepc/2B6.68, 4 days incubation (printed FIG. 5)
Protocol: (§3) After incubation for 4 days, 20 μl of a MTT (Sigma) solution adjusted to 1 mg/ml with PBS (Flow) was added to each well followed by incubation at 37° C. for 3 hours. Next, 100 μl of 0.01N HCl solution containing 10% SDS was added to each well. After incubation at 37° C. overnight, absorbance was measured at 590 nm.

[12] = tested on: HepG2; details: HepG2, 4 days incubation (printed FIG. 4)
Protocol: as §3
Two plates each with the same design as in the MTT assay were prepared (for determination of LDH activity in the culture supernatant and for determination of LDH activity in the culture supernatant+LDH activity in the cells). After incubating for 4 days in a CO2 incubator, 10 μl of the supernatant was taken from each well of one plate (for determination of LDH activity in the supernatant), transferred to another 96-well plate, and 40 μl of distilled water was further added. On the other hand, 10 μl of 10% Triton X100 was added to each well of another plate (for determination of LDH activity in the culture supernatant+LDH activity in the cells), followed by shaking and incubation at 37° C. for 45 minutes. After centrifuging at 1500 rpm for 5 minutes, 10 μl of the supernatant was taken from each well, transferred to another 96-well plate, and 40 μl of distilled water was further added. The LDH activity of each well in these plates was measured using Cytotox 96 Non-Radioactive Cytotoxicity Assay Kit (Promega). Multiscanning MS-UV was used for the measurement of absorbance. […]

Question: `CCOc1ccc2ccc(=O)oc2c1` [7-ethoxycoumarin] was tested. Which Vmax ([1]; Lineweaver-Burk plot) did it give?
Answer: The Vmax was 80 pmol/min/mg.

Question: What about the Km ([1]; human, Hepc/2B6.68 cells expressing CYP2B6, Lineweaver-Burk plot) of the same compound?
Answer: Its Km is 81 µM.

Question: `CC(=O)Nc1ccc(O)cc1` [Acetaminophen, acetaminophen] was tested. Which “enhancement of sensitivity to acetaminophen in the presence of BSO (LDH leakage)” value ([2]; Hepc/2E1.3-8 + 100 μM BSO (glutathione exhausted), versus without BSO) did it give?
Answer: Its value is “approximately 4 times”.

Question: What about the “leakage of LDH” value ([2]; Hepc/2E1.3-8, without BSO, 3 days incubation (FIG. 2)) of the same compound?
Answer: Its value is “slight leakage of LDH”.

Question: And the “MTT activity in the presence of BSO” value ([3]; Hepc/2E1.3-8 + 100 μM BSO)?
Answer: Its value is “increased sensitivity to acetaminophen”.

Question: And the MTT activity ([3]; Hepc/2E1.3-8, without BSO)?
Answer: Its MTT activity is “slight decrease of the MTT activity”.

Question: And the MTT activity [4]?
Answer: Its MTT activity is “slight decrease of the MTT activity”.

Question: What about the “effect of the presence of BSO on LDH leakage” value ([5]; HepG2 + 100 μM BSO (FIG. 2)) of the same compound?
Answer: Its value is “Any effect expected in the presence of BSO was not noted”.

Question: And the “leakage of LDH” value ([5]; HepG2, without BSO, 3 days incubation (FIG. 2))?
Answer: The value was “slight leakage of LDH”.

Question: `c1ccc2cc3c(ccc4ccccc43)cc2c1` [benzanthracene] was tested. Which “reduction in the MTT activity” value [6] did it give?
Answer: The value was “more potent reduction in the MTT activity”.

Question: `C[C@]12CC[C@H]3[C@@H](CCC4=CC(=O)CC[C@@]43C)[C@@H]1CC[C@@H]2O` [Testosterone] was tested. Which Vmax ([7]; Hepc/3A4.5, testosterone 6β-hydroxylase activity, Lineweaver-Burk plot) did it give?
Answer: Its Vmax is 71 pmol/min/mg.

Question: And the Km ([7]; human, Hepc/3A4.5 cells expressing CYP3A4)?
Answer: Its Km is 96 µM.

Question: How did the “CYP2E1 activity induction (p-nitrophenol hydroxylation, 4-nitrocatechol formed)” value [8] turn out when `CCO` [ethanol] was run?
Answer: The value was “the enzyme activity increases”.

Question: What does the source list for `O=c1ccc2ccccc2o1` [Coumarin]?
Answer: Vmax ([9]; Lineweaver-Burk plot): 412 pmol/min/mg; Km ([9]; human, Hepc/2A6L.9 cells expressing CYP2A6, Lineweaver-Burk plot): 11.1 µM

Question: `O=P1(N(CCCl)CCCl)NCCCO1` (stereo not shown) [Cyclophosphamide, cyclophosphamide] was tested. Which “leakage of LDH” value [10] did it give?
Answer: The value was “concentration-dependently in the concentration up to 2 mM”.

Question: And the MTT activity [11]?
Answer: The MTT activity was “slight decrease of the MTT activity concentration-dependently”.

Question: And the cytotoxicity [12]?
Answer: The cytotoxicity was “slightly cytotoxic”.

Question: With `C[S+](C)[O-]` [DMSO, dimethylsulfoxide] as the compound, how does the “CYP2E1 activity induction (p-nitrophenol hydroxylation, 4-nitrocatechol formed)” value [8] read?
Answer: Its value is “the enzyme activity increases”.
